Each structure is given as a SMILES string. Bounds are passed on as bounds.

The first assay relates to compound-treated mice. Briefly: Neuropharmacological assay (SmartCube): behavioral activity signature and minimal effective dose. The class given is in vivo. The following applies: MED = dose having 50% or more total activity. From the text: Neurosci. 2011 Sep. 9; 5:103 (doi: 10.3389/fnins.2011.00103) (“Roberds”). As reported in Roberds, because psychiatric diseases generally result from disorders of cell-cell communication or circuitry, intact systems are useful in detecting improvement in disease-relevant endpoints. These endpoints are typically behavioral in nature, often requiring human observation and interpretation. To facilitate testing of multiple compounds for behavioral effects relevant to psychiatric disease, PsychoGenics, Inc. (Tarrytown, N.Y., “PGI”) developed SmartCube™, an automated system in which behaviors of compound-treated mice are captured by digital video and analyzed with computer algorithms. (D. Brunner et al., Drug Discov. Today 2002, 7:S107-S112). PGI Analytical Systems uses data from SmartCube™ to compare the behavioral signature of a test compound to a database of behavioral signatures obtained using a large set of diverse reference compounds. (The composition of the database as well as validation of the method is further described in Roberds). In this way, the neuropharmacological effects of a test compound can be predicted by similarity to major classes of compounds, such as antipsychotics, anxiolytics and antidepressants.
The SmartCube™ system produces an activity signature indicating the probability that the activity of the test compound at the administered dose matches a given class of neuropharmacological agents. (See, e.g., Roberds, FIGS. 2 and 3). The test compound is simultaneously compared against multiple classes of agents; thus, a separate probability is generated for each behavioral effect measured (e.g., anxiolytic activity, analgesic activity, etc.). In the table below, these probabilities are reported for each behavioral effect measured as follows:
where LOQ is the limit of quantification.
Provided compounds were dissolved in a mixture of Pharmasolve™ (N-methyl-2-pyrrolidone), polyethylene glycol and propylene glycol, and were injected i.p. 15 min. before the behavioral test. For each compound, injections were administered at 3 different doses. For each behavioral effect measured, results for the most efficacious dose(s) are presented. In the table below, DP: anti-depressant; AX: anxiolytic; SD: sedative hypnotic; PS: anti-psychotic; MS: mood stabilizer; AD: ADHD; CE: cognitive enhancer; AG: analgesic; UN: uncharacterized CNS activity.
The potency of many of the compounds in the table was also determined in the SmartCube™ system. Test compounds were routinely examined at dose levels of 0.3, 1, 3, 10 and 30 mg per kg (mpk), although the dose range was increased or decreased if necessary to obtain a full dose response curve. A compound's minimal effective dose (MED) is a measure of the compounds potency. The MED was defined as the dose (in mpk) having 50% or more total activity in SmartCube.
`Cl.NC1COCc2ccc3c(c21)C1CCC3C1` (single isomer, unassigned) [Example 164]: the “Potency: minimal effective dose (MED), binned” value is “B (>3 to 10 mpk)”.

Still in this assay, the particulars now being: Mus musculus, ip, MED = dose having 50% or more total activity, read-out: Potency: minimal effective dose (MED), binned.
For `Cc1ccc(C)c2c1COC[C@H]2N` (single isomer, unassigned) [Example 165], the minimal effective dose fell in the range of 3 to 10 mg/kg.

Regarding `Cc1ccc(C)c2c1COC[C@@H]2N` (single isomer, unassigned) [Example 166], the minimal effective dose lay within 3 to 10 mg/kg.

On to `Cc1cccc2c1[C@H](N)[C@@H](C)OC2` (single isomer, unassigned) [Example 167], for which the minimal effective dose is < 3 mg/kg.

For the molecule `Cc1cccc2c1[C@@H](N)[C@H](C)OC2` (single isomer, unassigned) [Example 168], the minimal effective dose fell in the range of 3 to 10 mg/kg.

Turning to `Cc1cccc2c1[C@H](N)[C@H](C)OC2` (single isomer, unassigned) [Example 169], the minimal effective dose was < 3 mg/kg.

`COc1ccc2c(c1)[C@H](N)[C@@H](C)OC2` (single isomer, unassigned) [Example 171]: the minimal effective dose is < 3 mg/kg.

In the case of `COc1ccc2c(c1)[C@@H](N)[C@H](C)OC2` (single isomer, unassigned) [Example 172], the minimal effective dose is 10 to 30 mg/kg.

As for `COc1ccc2c(c1)[C@H](N)[C@H](C)OC2` (single isomer, unassigned) [Example 173], the minimal effective dose lay in the range of 3 to 10 mg/kg.

In the case of `COc1ccc2c(c1)[C@@H](N)[C@@H](C)OC2` (single isomer, unassigned) [Example 174], the minimal effective dose lay in the range of 3 to 10 mg/kg.

Staying with this assay, now noted: i.p. 15 min before test, most efficacious dose(s).
Take `Cl.NC1COCc2ccc3c(c21)C1CCC3C1` (single isomer, unassigned) [Example 164]: the “AD: ADHD (probability of activity signature)” value (“AD: ADHD” for short) was “+ (LOQ ≤ + <5%)”, the “AG: analgesic (probability of activity signature)” value (from here on “AG: analgesic”) was “++ (5% ≤ ++ <25%)”, the “AX: anxiolytic (probability of activity signature)” value (shortened to “AX: anxiolytic”) was “+++ (25% ≤ +++ <50%)” and the “CE: cognitive enhancer (probability of activity signature)” value (“CE: cognitive enhancer” for short) is reported as “++ (5% ≤ ++ <25%)”. Also, the “DP: anti-depressant (probability of activity signature)” value (“DP: anti-depressant” below) is reported as “+ (LOQ ≤ + <5%)”, the “MS: mood stabilizer (probability of activity signature)” value (“MS: mood stabilizer” below) is reported as “+ (LOQ ≤ + <5%)”, the “PS: anti-psychotic (probability of activity signature)” value (“PS: anti-psychotic” below) is “++ (5% ≤ ++ <25%)” and the “SD: sedative hypnotic (probability of activity signature)” value (shortened to “SD: sedative hypnotic”) is listed as “++ (5% ≤ ++ <25%)”. Besides, the “UN: uncharacterized CNS activity (probability of activity signature)” value (“UN: uncharacterized CNS activity” below) is “+++ (25% ≤ +++ <50%)”.

As for `Cc1ccc(C)c2c1COC[C@H]2N` (single isomer, unassigned) [Example 165], the “AD: ADHD” value was “+ (LOQ ≤ + <5%)”, the “AG: analgesic” value is “+ (LOQ ≤ + <5%)”, the “AX: anxiolytic” value is reported as “++ (5% ≤ ++ <25%)” and the “CE: cognitive enhancer” value is given as “++ (5% ≤ ++ <25%)”. Moreover, the “DP: anti-depressant” value is on record as “++ (5% ≤ ++ <25%)”, the “MS: mood stabilizer” value is listed as “+ (LOQ ≤ + <5%)”, the “PS: anti-psychotic” value is reported as “++ (5% ≤ ++ <25%)” and the “SD: sedative hypnotic” value is reported as “+ (LOQ ≤ + <5%)”. The “UN: uncharacterized CNS activity” value was “++++ (50% ≤ ++++)”.

With `Cc1ccc(C)c2c1COC[C@@H]2N` (single isomer, unassigned) [Example 166], the “AD: ADHD” value is reported as “+ (LOQ ≤ + <5%)”, the “AG: analgesic” value was “+ (LOQ ≤ + <5%)”, the “AX: anxiolytic” value is “++ (5% ≤ ++ <25%)” and the “CE: cognitive enhancer” value was “++ (5% ≤ ++ <25%)”. Also, the “DP: anti-depressant” value is “+ (LOQ ≤ + <5%)”, the “MS: mood stabilizer” value is “+ (LOQ ≤ + <5%)”, the “PS: anti-psychotic” value is reported as “++ (5% ≤ ++ <25%)” and the “SD: sedative hypnotic” value is reported as “++ (5% ≤ ++ <25%)”. For the same molecule, the “UN: uncharacterized CNS activity” value was “++++ (50% ≤ ++++)”.

Turning to `Cc1cccc2c1[C@H](N)[C@@H](C)OC2` (single isomer, unassigned) [Example 167], the “AD: ADHD” value is “+ (LOQ ≤ + <5%)”, the “AG: analgesic” value is reported as “++ (5% ≤ ++ <25%)”, the “AX: anxiolytic” value is “++ (5% ≤ ++ <25%)” and the “CE: cognitive enhancer” value is “+ (LOQ ≤ + <5%)”. In addition, the “DP: anti-depressant” value is recorded as “+ (LOQ ≤ + <5%)”, the “MS: mood stabilizer” value was “+ (LOQ ≤ + <5%)”, the “PS: anti-psychotic” value is listed as “++ (5% ≤ ++ <25%)” and the “SD: sedative hypnotic” value is given as “+ (LOQ ≤ + <5%)”. Also, the “UN: uncharacterized CNS activity” value is “++++ (50% ≤ ++++)”.

For `Cc1cccc2c1[C@@H](N)[C@H](C)OC2` (single isomer, unassigned) [Example 168], the “AD: ADHD” value is recorded as “+ (LOQ ≤ + <5%)”, the “AG: analgesic” value is listed as “+ (LOQ ≤ + <5%)”, the “AX: anxiolytic” value is “++ (5% ≤ ++ <25%)” and the “CE: cognitive enhancer” value is on record as “++ (5% ≤ ++ <25%)”. For the same molecule, the “DP: anti-depressant” value is recorded as “++ (5% ≤ ++ <25%)”, the “MS: mood stabilizer” value is “+ (LOQ ≤ + <5%)”, the “PS: anti-psychotic” value is reported as “+++ (25% ≤ +++ <50%)” and the “SD: sedative hypnotic” value is reported as “+ (LOQ ≤ + <5%)”. Further, the “UN: uncharacterized CNS activity” value is given as “++++ (50% ≤ ++++)”.

Take `Cc1cccc2c1[C@H](N)[C@H](C)OC2` (single isomer, unassigned) [Example 169]: the “AD: ADHD” value is on record as “+ (LOQ ≤ + <5%)”, the “AG: analgesic” value is on record as “++ (5% ≤ ++ <25%)”, the “AX: anxiolytic” value is listed as “++ (5% ≤ ++ <25%)” and the “CE: cognitive enhancer” value is given as “++ (5% ≤ ++ <25%)”. Moreover, the “DP: anti-depressant” value was “++ (5% ≤ ++ <25%)”, the “MS: mood stabilizer” value is given as “+ (LOQ ≤ + <5%)”, the “PS: anti-psychotic” value was “++ (5% ≤ ++ <25%)” and the “SD: sedative hypnotic” value is listed as “++ (5% ≤ ++ <25%)”. The “UN: uncharacterized CNS activity” value is given as “++++ (50% ≤ ++++)”.

With `COc1ccc2c(c1)[C@H](N)[C@@H](C)OC2` (single isomer, unassigned) [Example 171], the “AD: ADHD” value was “+ (LOQ ≤ + <5%)”, the “AG: analgesic” value is listed as “++ (5% ≤ ++ <25%)”, the “AX: anxiolytic” value is recorded as “+++ (25% ≤ +++ <50%)” and the “CE: cognitive enhancer” value is listed as “++ (5% ≤ ++ <25%)”. Further, the “DP: anti-depressant” value was “++ (5% ≤ ++ <25%)”, the “MS: mood stabilizer” value is “+ (LOQ ≤ + <5%)”, the “PS: anti-psychotic” value is “++ (5% ≤ ++ <25%)” and the “SD: sedative hypnotic” value is recorded as “++ (5% ≤ ++ <25%)”. Further, the “UN: uncharacterized CNS activity” value is “+++ (25% ≤ +++ <50%)”.

As to `COc1ccc2c(c1)[C@@H](N)[C@H](C)OC2` (single isomer, unassigned) [Example 172], the “AD: ADHD” value is recorded as “+ (LOQ ≤ + <5%)”, the “AG: analgesic” value is recorded as “++ (5% ≤ ++ <25%)”, the “AX: anxiolytic” value is “++ (5% ≤ ++ <25%)” and the “CE: cognitive enhancer” value is given as “+ (LOQ ≤ + <5%)”. Also, the “DP: anti-depressant” value was “+ (LOQ ≤ + <5%)”, the “MS: mood stabilizer” value is given as “+ (LOQ ≤ + <5%)”, the “PS: anti-psychotic” value was “++ (5% ≤ ++ <25%)” and the “SD: sedative hypnotic” value is “+ (LOQ ≤ + <5%)”. Also, the “UN: uncharacterized CNS activity” value was “+++ (25% ≤ +++ <50%)”.

Take `COc1ccc2c(c1)[C@H](N)[C@H](C)OC2` (single isomer, unassigned) [Example 173]: the “AD: ADHD” value is recorded as “+ (LOQ ≤ + <5%)”, the “AG: analgesic” value was “++ (5% ≤ ++ <25%)”, the “AX: anxiolytic” value was “++ (5% ≤ ++ <25%)” and the “CE: cognitive enhancer” value is “++ (5% ≤ ++ <25%)”. The “DP: anti-depressant” value is reported as “+ (LOQ ≤ + <5%)”, the “MS: mood stabilizer” value is reported as “+ (LOQ ≤ + <5%)”, the “PS: anti-psychotic” value is listed as “+ (LOQ ≤ + <5%)” and the “SD: sedative hypnotic” value is “+ (LOQ ≤ + <5%)”. Besides, the “UN: uncharacterized CNS activity” value was “++++ (50% ≤ ++++)”.

In the case of `COc1ccc2c(c1)[C@@H](N)[C@@H](C)OC2` (single isomer, unassigned) [Example 174], the “AD: ADHD” value was “+ (LOQ ≤ + <5%)”, the “AG: analgesic” value is “++ (5% ≤ ++ <25%)”, the “AX: anxiolytic” value is listed as “++ (5% ≤ ++ <25%)” and the “CE: cognitive enhancer” value was “++ (5% ≤ ++ <25%)”. Moreover, the “DP: anti-depressant” value is recorded as “++ (5% ≤ ++ <25%)”, the “MS: mood stabilizer” value is on record as “+ (LOQ ≤ + <5%)”, the “PS: anti-psychotic” value is recorded as “++ (5% ≤ ++ <25%)” and the “SD: sedative hypnotic” value is “+ (LOQ ≤ + <5%)”. For the same molecule, the “UN: uncharacterized CNS activity” value is given as “++++ (50% ≤ ++++)”.

These data come from US11077090B2, “Compounds and compositions and uses thereof” (Sunovion Pharmaceuticals Inc., priority 2016, dated 2021).
